Data as given in US20250282752A1, “Quinazoline Derivative Salt Crystal Form, Preparation Method and Application” (WEISHANG (SHANGHAI) BIO-PHARMACEUTICAL CO., LTD., priority 2018, published 2025).
Where a name gives a salt, the structure may show the parent alone. Read-outs that look alike come from different tables or passages of the source. Values belong to the compound of their own block, whether it stands above or below them.

Legend:
[1] = Rat pharmacokinetic study; assay type: in vivo; conditions: rats; for bioavailability: intravenous 1-2 mg/kg, oral 2-40 mg/kg
Method: In the rat pharmacokinetic study, a group of rats (three rats) were injected intravenously with 1-2 mg/kg, and the second group of rats (three rats) were orally administered 2-40 mg/kg at 7 time points (0.25, 0.5, 1, 2, 4, 8, 16 hours) of the quinazoline derivative (I) of the present invention. Take blood to measure the concentration of the quinazoline derivative (I) of the present invention in the blood, and calculate the peak area and half-life. The calculation method of bioavailability is: (peak area of drug oral/oral dose)/(peak area of drug intravenous injection/intravenous dose)×100%.

[2] = TGA/DSC behaviour during heating; assay type: physicochemical; conditions: heating process; for weight loss during heating (TGA): FIG. 23A; for stability of crystal form during heating (DSC): FIG. 23B
[3] = system: Glioma PDX with EGFRVIII mutation; assay: CellTiter-Glo cell viability, glioma tumor cells; assay type: cell-based
Method: (§1) Add 100 microliters of CellTiter-Glo reagent to each well and mix on an orbital shaker for 2 minutes to induce cell lysis. The plate was incubated at room temperature for 10 minutes to stabilize the luminescence signal. The luminescence signal was recorded on the TECAN Infinite M1000 Pro instrument.

[4] = biological target: EGFR enzyme (Homo sapiens, UniProt P00533); assay: EGFR enzyme inhibition mechanism (ADP-Glo, ATP titration); assay type: biochemical; conditions: ATP diluted from 600 uM, EGFR 0.4 nM to 0.0125 nM; FIG. 24
Method: In the experiment of the quinazoline derivative (I) of the present invention on the mechanism of inhibiting EGFR, the EGFR enzyme was added to the 384-well plate from 6 concentrations diluted in equal proportions (2 times) of 0.4 nM to 0.0125 nM and 0 concentration in polyE4Y1 solution, incubate for 15 minutes, add 7 concentrations of ATP diluted from 600 uM in equal proportions (2 times) to react for 60 minutes, add ADP-Glo reagent and detection reagent for 40 minutes to measure RLU signal. […] The benefits of this mechanism of action are obvious. The quinazoline derivative (I) of the present invention has this mechanism of action, showing high activity and high selectivity, and has the characteristics of small side effects and resistance to drug resistance.

[5] = system: PC-9 tumor cell (EGFR Del 19 mutation); assay: CellTiter-Glo cell viability, PC-9 tumor cells; assay type: cell-based; conditions: 72 hours, read-out: Inhibition of growth of PC-9 tumor cell (EGFR Del 19 mutation), IC50
Method: as §1

[6] = biological target: T1, Breast cancer resistance protein (BCRP) (Homo sapiens, UniProt Q9UNQ0); assay: BCRP efflux substrate; assay type: in vitro ADME
T1 sequence (Q9UNQ0 1-655): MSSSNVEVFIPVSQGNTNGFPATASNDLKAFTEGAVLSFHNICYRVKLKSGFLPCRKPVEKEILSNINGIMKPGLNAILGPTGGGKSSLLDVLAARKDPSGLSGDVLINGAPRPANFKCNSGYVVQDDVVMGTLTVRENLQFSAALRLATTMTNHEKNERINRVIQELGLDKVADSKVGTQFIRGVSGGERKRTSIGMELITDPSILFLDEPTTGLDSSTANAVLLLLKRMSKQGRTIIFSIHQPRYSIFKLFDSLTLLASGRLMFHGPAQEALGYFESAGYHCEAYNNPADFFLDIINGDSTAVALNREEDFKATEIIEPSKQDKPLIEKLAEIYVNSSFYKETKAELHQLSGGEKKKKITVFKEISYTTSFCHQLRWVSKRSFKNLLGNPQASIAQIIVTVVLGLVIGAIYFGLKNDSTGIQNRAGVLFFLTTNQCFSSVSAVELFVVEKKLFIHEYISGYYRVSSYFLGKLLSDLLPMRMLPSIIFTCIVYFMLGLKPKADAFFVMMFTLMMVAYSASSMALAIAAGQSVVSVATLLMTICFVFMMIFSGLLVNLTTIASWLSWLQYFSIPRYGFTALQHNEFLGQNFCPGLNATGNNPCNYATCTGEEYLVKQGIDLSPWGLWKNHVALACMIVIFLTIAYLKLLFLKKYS

[7] = Equilibrium solubility in water; assay type: physicochemical; conditions: room temperature, 24 hours, listed as quinazoline derivative (I) free base
Method: Experimental method: Weigh about 10 mg of solid sample (free base and various salt forms and crystal forms), add 1.5 mL of water, and after equilibrate at room temperature for 24 hours, take out 0.3 mL of turbid solution, and centrifuge to separate the lower solid and supernatant. After the supernatant was filtered through a 0.45 μm (PTFE) filter, the concentration of free alkali was tested.

[8] = Blood-brain barrier penetration in rats; assay type: in vivo, rat; conditions: oral, four hours after administration
Method: To determine whether the quinazoline derivative (I) can cross the blood-brain barrier (BBB), the test compound was administered to rats orally. Four hours after the administration, the rats were killed, blood and brain tissue were collected, and the concentration of the test compound was analyzed. Brain penetration is defined as the ratio of the concentration of the compound in brain tissue to the concentration in plasma. Crossing the blood-brain barrier is the ratio of the free concentration of the drug in the brain tissue to the free concentration of the drug in the plasma. P-glycoprotein is an efflux protein of the blood-brain barrier, which discharges the P-glycoprotein substrate […]. Breast cancer resistance protein is an efflux protein from the blood-brain barrier, which excretes […].

[9] = biological target: EGFRV3 (EGFRVIII) (Homo sapiens, UniProt P00533, DELINS30-297G); assay: Western blot of […] phosphorylation; assay type: cell-based; conditions: FIG. 21
Text: FIG. 21 is a schematic diagram of the inhibition of […] phosphorylation by quinazoline derivatives of the present invention;
It can be seen from Table 22 that the quinazoline derivative (I) with the configuration of R according to the present invention has unexpected […] mutation activity, which is >100 times higher activity than the enantiomer activity while has similar biological activity for EGFR Del 19 activating mutation.

[10] = system: patient primary brain tumor tissue with EGFRVIII mutation; assay: Subcutaneous PDX mouse model of glioma with […] mutation; assay type: in vivo; conditions: orally, twice a day, three weeks
Method: The patient's primary tumor tissue (brain tumor) was implanted under the skin of the mouse, and the tumor grew to about 150 cubic millimeters, and the medication was started for three weeks. […] The second group of quinazoline derivatives (I) single agent, 3 mg/kg, orally, twice a day, the third group of quinazoline derivatives (I) single agent, 10 mg/kg, orally, two times a day, the fourth group of quinazoline derivatives (I) is a single agent, 20 mg/kg, orally, twice a day.

[11] = biological target: P-glycoprotein (Homo sapiens, UniProt P08183); assay: P-gp efflux substrate; assay type: in vitro ADME
Chain of P-glycoprotein (P08183 whole entry): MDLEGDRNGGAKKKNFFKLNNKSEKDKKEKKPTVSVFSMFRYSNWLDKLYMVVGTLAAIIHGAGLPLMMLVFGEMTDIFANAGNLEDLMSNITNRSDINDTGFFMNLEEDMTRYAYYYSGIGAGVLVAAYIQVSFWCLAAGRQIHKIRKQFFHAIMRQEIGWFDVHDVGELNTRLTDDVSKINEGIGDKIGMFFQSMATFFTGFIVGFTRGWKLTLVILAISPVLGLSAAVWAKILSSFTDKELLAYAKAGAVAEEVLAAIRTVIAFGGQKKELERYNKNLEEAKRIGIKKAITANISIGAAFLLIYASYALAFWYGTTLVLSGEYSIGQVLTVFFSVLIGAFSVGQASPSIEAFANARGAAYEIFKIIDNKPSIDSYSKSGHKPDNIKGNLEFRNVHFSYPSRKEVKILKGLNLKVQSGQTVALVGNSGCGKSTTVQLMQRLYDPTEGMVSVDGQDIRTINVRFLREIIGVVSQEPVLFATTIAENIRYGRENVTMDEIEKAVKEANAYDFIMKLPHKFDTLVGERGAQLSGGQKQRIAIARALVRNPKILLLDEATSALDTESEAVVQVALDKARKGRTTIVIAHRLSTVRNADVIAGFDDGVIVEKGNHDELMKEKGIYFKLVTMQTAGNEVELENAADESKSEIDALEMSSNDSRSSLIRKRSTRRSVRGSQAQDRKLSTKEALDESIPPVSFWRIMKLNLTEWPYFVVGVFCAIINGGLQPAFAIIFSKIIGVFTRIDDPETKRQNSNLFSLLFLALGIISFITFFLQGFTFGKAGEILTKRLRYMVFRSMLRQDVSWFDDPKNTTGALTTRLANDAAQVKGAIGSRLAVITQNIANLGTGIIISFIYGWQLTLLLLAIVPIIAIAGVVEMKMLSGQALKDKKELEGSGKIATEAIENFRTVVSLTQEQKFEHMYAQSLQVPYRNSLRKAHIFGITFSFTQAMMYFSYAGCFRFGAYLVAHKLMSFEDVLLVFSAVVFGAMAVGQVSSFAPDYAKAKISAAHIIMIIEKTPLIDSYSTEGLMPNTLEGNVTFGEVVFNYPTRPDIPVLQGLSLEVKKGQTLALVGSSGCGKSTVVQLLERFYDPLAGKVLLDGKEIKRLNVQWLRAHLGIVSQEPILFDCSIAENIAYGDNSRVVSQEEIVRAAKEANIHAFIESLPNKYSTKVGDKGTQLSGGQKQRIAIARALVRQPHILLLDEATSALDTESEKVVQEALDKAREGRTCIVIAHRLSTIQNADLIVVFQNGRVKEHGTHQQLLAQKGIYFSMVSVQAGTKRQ

[12] = listed as quinazoline derivative fumarate salt
[13] = listed as quinazoline derivatives (I)

- half-life ([1]; rat, blood): 7.4 h
- bioavailability [1]: 80%
- weight loss during heating (TGA) [2]: no significant weight loss
- weight loss during heating (TGA) [2, 12]: without significant weight loss
- stability of crystal form during heating (DSC) [2]: good stability
Compound: C#Cc1cccc(Nc2ncnc3cc(OC)c(O[C@@H]4CCN(C)CC4(F)F)cc23)c1F [fumarate crystal form A, (R)-6-[(3,3-difluoro-1-methylpiperidin-4-yl)oxy]-N-(3-Ethynyl-2-fluorophenyl)-7-methoxyquinazolin-4-amine]
- stability of crystal form during heating (DSC) [2, 12]: the crystal form is stable during heating

- IC50 ([3]; read-out: Inhibition of growth of Glioma PDX with EGFRVIII mutation, IC50, 72 hours, CellTiter-Glo): 10 nM
- mechanism of inhibiting EGFR [4]: non-ATP competition mechanism
- IC50 [5]: 8 nM
- BCRP efflux substrate [6]: not a P-glycoprotein or BCRP substrate
- BCRP efflux substrate [6, 13]: no
- equilibrium solubility in water [7]: <5 µg/mL
- Blood brain barrier penetration rate (free concentration in brain tissue / free concentration in plasma) [8, 13]: >50%
- Kp at 4 h ([8]; rat, brain tissue / plasma (free concentrations), read-out: Blood brain barrier penetration rate (free concentration in brain tissue / free concentration in plasma)): > 0.5
- phosphorylation of EGFRV3 [9]: inhibited
- P-gp efflux substrate [11]: not a P-glycoprotein or BCRP substrate
- P-gp efflux substrate [11, 13]: no
Compound: C#Cc1cccc(Nc2ncnc3cc(OC)c(O[C@@H]4CCN(C)CC4(F)F)cc23)c1F [quinazoline derivative (I), (R)-6-[(3,3-difluoro-1-methylpiperidin-4-yl)oxy]-N-(3-Ethynyl-2-fluorophenyl)-7-methoxyquinazolin-4-amine]
- EGFRVIII mutation activity relative to the enantiomer ([3]; R configuration vs S enantiomer): > 100 times
- tumor reduction ([10]; 20 mg/kg): caused tumor reduction
- inhibition of tumor growth vs control group ([10]; 3, 10 and 20 mg/kg, FIG. 22): good inhibition of tumor growth

- bioavailability ([1]; rat, blood, po, read-out: bioavailability): > 60%
Compound: C#Cc1cccc(Nc2ncnc3cc(OC)c(O[C@@H]4CCN(C)CC4(F)F)cc23)c1F [Hydrochloride crystal form B, (R)-6-[(3,3-difluoro-1-methylpiperidin-4-yl)oxy]-N-(3-Ethynyl-2-fluorophenyl)-7-methoxyquinazolin-4-amine]
